Measurements from PMC4067310, “From Pan-Reactive KV7 Channel Opener to Subtype Selective Opener/Inhibitor by Addition of a Methyl Group” (PLoS ONE, 2014).

Legend:
[1] = target: T1, KV7.4 (Homo sapiens, UniProt P56696); test: Two-electrode voltage-clamp of KV7.4 expressed in Xenopus laevis oocytes; type: cell-based
T1 construct: expressed in transfected cells; host or cells: Xenopus laevis oocytes injected with cRNA (pGEM-HE vector)
T1 sequence (P56696 1-695): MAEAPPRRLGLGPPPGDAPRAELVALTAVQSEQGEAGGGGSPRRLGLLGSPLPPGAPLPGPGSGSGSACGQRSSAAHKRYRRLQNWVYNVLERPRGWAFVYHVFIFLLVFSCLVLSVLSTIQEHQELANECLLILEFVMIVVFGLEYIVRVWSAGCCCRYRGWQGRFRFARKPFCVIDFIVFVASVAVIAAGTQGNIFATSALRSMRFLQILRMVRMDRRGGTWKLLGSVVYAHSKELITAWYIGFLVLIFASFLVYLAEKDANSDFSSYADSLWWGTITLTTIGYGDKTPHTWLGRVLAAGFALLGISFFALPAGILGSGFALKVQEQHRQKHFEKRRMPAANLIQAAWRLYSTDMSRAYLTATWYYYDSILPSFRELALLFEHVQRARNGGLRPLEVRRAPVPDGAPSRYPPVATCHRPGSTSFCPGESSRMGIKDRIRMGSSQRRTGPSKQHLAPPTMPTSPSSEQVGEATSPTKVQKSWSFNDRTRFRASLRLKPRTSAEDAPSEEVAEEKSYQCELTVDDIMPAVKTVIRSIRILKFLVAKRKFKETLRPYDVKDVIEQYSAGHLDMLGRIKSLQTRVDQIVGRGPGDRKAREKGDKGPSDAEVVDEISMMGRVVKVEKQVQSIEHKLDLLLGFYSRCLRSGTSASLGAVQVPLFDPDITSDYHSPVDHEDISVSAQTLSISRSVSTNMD
Description: Point mutations were introduced using mutated oligonucleotide extension (PfuTurbo Polymerase, Stratagene, La Jolla, CA, USA) from a plasmid template harboring the cDNA of interest, digested with DpnI (Fermentas, St. Leon-Roth, Germany) and transformed into E.coli XL1 Blue cells. The construct was verified by complete DNA sequencing of the cDNA insert. cRNA was prepared from linearized human wild-type (WT) and mutant KV7 channels in the pGEM-HE vector using the T7 m-Message Machine kit (Ambion, Austin, TX, USA) according to the manufacturer's instructions.
Extraction of Xenopus laevis oocytes and injection of cRNA was performed as described previously. Oocytes were kept in Modified Barth's Saline (in mM: 88 NaCl, 1 KCl, 2.4 NaHCO3, 0.41 CaCl2, 0.82 MgSO4, 0.3 Ca(NO3)2, 15 HEPES, pH 7.4 supplemented with 100 U/mL penicillin and 100 µg/mL streptomycin) at 18°C, and currents were recorded after 2-7 days. The care of Xenopus laevis and the oocyte extraction procedure were performed according to national guidelines and approved by the Danish Animal Experiments Inspectorate.
KV7 currents in Xenopus laevis oocytes were recorded using two-electrode voltage-clamp at room temperature in Ringer buffer (in mM: 115 NaCl, 2.5 KCl, 1.8 CaCl2, 0.1 MgCl2, 10 HEPES, pH 7.4) as described previously. Data was acquired using pCLAMP 10.2 software (Molecular Devices, CA, USA) and analyzed using pCLAMP 10.2 and GraphPad Prism 4.0 (GraphPad Software Inc., CA, USA). Currents were elicited from a holding potential of −80 mV by 5 s steps to potentials between −100 and +50 mV in 10 mV increments, followed by a 2 s step to −120 mV.
SMB-1 was dissolved in dimethyl sulfoxide (DMSO) to obtain a concentrated stock solution. On the day of experiments the stock solution was thawed and diluted in Ringer buffer to the final concentrations. A concentration of 10 µM SMB-1 was used unless indicated otherwise. The final DMSO concentration never exceeded 0.1%.
Current – voltage (I–V) relationship curves were generated by normalizing the steady-state peak current measured at potentials between −100 and +50 mV to the current measured at +50 mV in control recordings and plotting the values against the test potential.
The voltage-dependence of activation was determined from tail current analysis using the current measured immediately after the transient capacitive current after stepping to −120 mV from potentials between −100 mV and +50 mV. Data was normalized to extend from 0–1 and the tail current-voltage relationship was fitted to the Boltzmann equation: [drawing 1] (Equation\;1) where I max is the maximum tail current, I min is the minimum tail current, V0.5 is the potential for half maximal activation and k is the slope factor. A V0.5 was calculated for each individual experiment and statistical significance was estimated by paired two-tailed Student's t-test.
Activation kinetics for KV7.4 and KV7.4-W242L was determined by fitting the traces recorded at potentials between −30 and +50 mV to a single exponential function: [drawing 3] (Equation\;3) where I(t) is the current at time t, I 0 is the peak current and τ is the activation time constant.
For investigation of deactivation kinetics the tail current traces recorded at −120 mV when stepping from the channels' respective ∼V0.5 were fitted to a single exponential function (Eq. 3).
Dose-response curves from electrophysiological experiments were made by plotting the increase in steady state current at +50 mV expressed in percentages as a function of drug concentration. The data were then analyzed by non-linear regression and fitted to the equation for sigmoidal dose-response with variable slope: [drawing 4] (Equation\;4) where R1 is the initial response, R2 is the maximum response, X is the logarithm of the drug concentration and nH is the slope (Hill coefficient) of the curve.

[2] = tested on: MDCK cell system expressing human MDR1 [ABCB1, P-glycoprotein (P-gp)]; test: Bidirectional permeability in MDR1-MDCK cells; type: in vitro ADME; conditions: judged from the efflux ratio in MDR1-MDCK cells
Description: (§1) The bidirectional permeability (Papp) of SMB-1 was examined in an MDCK cell system expressing human MDR1 [ABCB1, P-glycoprotein (P-gp)] as described previously. Permeation of the test compound from apical (A) to basal (B) direction or B to A direction was determined in triplicate over a 150-min incubation at 37°C. The efflux ratio was calculated as the ratio between Papp (B to A) and Papp (A to B). Free fraction of SMB-1 was determined using a standard equilibrium dialysis methodology with freshly isolated rat brain homogenate or plasma. Equilibrium dialysis was performed by incubating at 37°C for 5 h in triplicates.

[3] = tested on: human MDR1 (ABCB1, P-glycoprotein); test: Bidirectional permeability in MDR1-MDCK cells; type: in vitro ADME; conditions: dog, MDCK-MDR1, 150-min incubation at 37°C
Description: as §1

current amplitude, % of control at 10 µM ([1]; 10 µM SMB-1, +50 mV, n = 8): 184 ± 12.4%
effect on τact ([1]; 10 µM, at all potentials tested): significantly increased
τdeact, deactivation time constant in presence of compound ([1]; 10 µM, control 10.3±0.6 ms, n = 8, p<0.001): 16.4 ± 1.2 ms
V0.5, voltage-dependence of activation in presence of compound ([1]; 10 µM, control −0.2±3.6 mV, n = 8, p = 0.59): −1.4±3.4 mV
Emax ([1]; +50 mV, n = 5, read-out: maximal efficacy): 213 ± 33.1%
EC50 ([1]; increase in steady state current at +50 mV, n = 5): 5.7 µM
substrate for the efflux transporter P-gp [2]: not identified as a substrate
Papp at 150 min ([3]; triplicate, read-out: membrane permeability (Papp)): 2.5 ± 0.3 ×10⁻⁶ cm/s
efflux ratio at 150 min ([3]; read-out: efflux ratio, Papp (B to A) / Papp (A to B)): 0.7
Structure (SMILES): C[C@@H](c1ccc2c(c1)N(CC1CC1)CCO2)N(C)C(=O)/C=C/c1ccccc1F [SMB-1, (E)-N-[(S)-1-(4-Cyclopropylmethyl-3,4-dihydro-2H-1,4-benzoxazin-6-yl)-ethyl]-3-(2-fluoro-phenyl)-N-methyl-acrylamide]
